Measurements from the NIST ThermoML archive (doi:10.1021/je100749m).
Numbers after ± are expanded uncertainties.

Experiments:
[1] = Molar enthalpy of transition or fusion; details: Crystal; DSC
[2] = Crystal; DTA

Molar enthalpy of transition or fusion [1] [kcal/mol] | Normal melting temperature [2] [°C] | Compound
5 ± 0.148 | 95.98 ± 0.53 | O=C(O)CCCC(=O)O [1,5-pentanedioic acid]
8.46 ± 0.237 | 153.16 ± 0.53 | O=C(O)CCCCC(=O)O [1,6-hexanedioic acid]
4.31 ± 0.131 | 122.93 ± 0.53 | O=C(O)c1ccccc1 [benzoic acid]
